# Laboratory results: patent publication US4464388A, “Use of prostaglandin analogues to treat cytodamage” (priority 1982, dated 1984)
# Like-named read-outs stand apart in the source and are kept apart here.
# Tests used:
# [1] = tested on: carbon tetrachloride (CCl4) induced liver damage; assay: Effect on carbon tetrachloride (CCl4) induced liver damage (liver cell necrosis type); type: in vivo, Male Wistar rats; settings: for inhibition in vivo at 1 mg/kg / inhibition in vivo at 0.1 mg/kg / inhibition in vivo at 0.05 mg/kg / inhibition in vivo at 1.5 mg/kg / inhibition in vivo at 0.5 mg/kg / inhibition in vivo at 0.02 mg/kg: Rattus norvegicus, 24 h; for inhibition in vivo at 1 mg/kg: 1000 μg/kg; for inhibition in vivo at 0.05 mg/kg: 50 μg/kg; for inhibition in vivo at 1.5 mg/kg: 1500 μg/kg; for inhibition in vivo at 0.5 mg/kg: 500 μg/kg; for inhibition in vivo at 0.02 mg/kg: 20 μg/kg
# Protocol: Effect on carbon tetrachloride (CCl4) induced liver damage (liver cell necrosis type)
# Male Wistar rats weighing 180-220 g were used. Rats were dosed intraperitoneally with CCl4 dissolved in olive oil (5%, w/v) at a volume of 500 μl/kg after 18 hr starvation. The compound under test was administered orally (p.o.) or subcutaneously (s.c.) 6 and 12 hr after CCl4 injection in rats and blood was collected after 24 hr. Plasma glutamic oxaloacetic transaminase (GOT) and glutamic pyruvic transaminase (GPT) activities were determined by ultraviolet absorbance methods (optimised method based on the recommendations of the Deutsche Gesellschaft fur Klinische Chemie). The effects of the compounds tested were assessed by the inhibition rate in comparison with controls. Inhibition rate was calculated by the following formula. [formula] The results obtained are shown in the following Tables 1A and 1B for compounds of the general formula: [drawing 10] wherein R, R^1 and --X--Y--Z-- have the meanings indicated.
# In Tables 1A, 1B and 2 to 5 hereinafter the dose shown in the amount given at each administration of the compound under test.
# Acute toxicity test = settings: mouse, in vivo; oral, mice observed for 14 days
# Protocol: Male JCL-ICR mice (non SPF mice) from 7 weeks of age were used. The compound under test was dissolved in 5% v/v ethanol containing 0.4% w/v Tween 80 (Tween is a registered trademark) and administered orally to the mice. […] The deaths observed were all within 72 hrs after treatment.
# artery = settings: cited from earlier work
# [2] = tested on: blood platelet aggregation; settings: cited from earlier work
# [3] = po, p.o., plasma GOT after 24 hr, read-out: inhibition rate GOT
# [4] = po, p.o., plasma GPT after 24 hr, read-out: inhibition rate GPT
# [5] = po, p.o., 100 μg/kg, plasma GOT after 24 hr, read-out: inhibition rate GOT
# [6] = po, p.o., 100 μg/kg, plasma GPT after 24 hr, read-out: inhibition rate GPT
# [7] = sc, s.c., plasma GOT after 24 hr, read-out: inhibition rate GOT
# [8] = sc, s.c., plasma GPT after 24 hr, read-out: inhibition rate GPT
smiles,measurement,setting,value
"CCCC1CCC([C@H](O)/C=C/[C@@H]2[C@H]3C[C@H](CCCCC(=O)OC)O[C@H]3C[C@H]2O)C1 (stereo partly drawn) [Compound 17, (6S)-15-(3-propylcyclopentyl)-16,17,18,19,20-pentanor-PGI1 methyl ester]",inhibition in vivo at 1 mg/kg,[1]; [3],32.9%
same,inhibition in vivo at 1 mg/kg,[1]; [4],32%
"CCCC1CCC([C@H](O)/C=C/[C@H]2[C@H](O)CC(=O)[C@@H]2CC(=O)CCCCC(=O)OC)C1 (stereo partly shown) [Compound 4, 15-(3-Propylcyclopentyl)-16,17,18,19,20-pentanor-6-oxo-PGE1 methyl ester]",inhibition in vivo at 0.1 mg/kg,[1]; [5],77%
same,inhibition in vivo at 0.1 mg/kg,[1]; [6],51.5%
"CCCC1CCC([C@H](O)/C=C/[C@H]2[C@H](O)CC(=O)[C@@H]2CC(=O)CCCCC(=O)OC)CC1 (stereo partly shown) [Compound 11, 15-(4-Propylcyclohexyl)-16,17,18,19,20-pentanor-6-oxo-PGE1 methyl ester]",inhibition in vivo at 0.05 mg/kg,[1]; [7],48.5%
same,inhibition in vivo at 0.05 mg/kg,[1]; [8],45.1%
"CCCC1CCC([C@H](O)/C=C/[C@@H]2[C@H]3CC(CCCCC(=O)OC)=N[C@H]3C[C@H]2O)C1 (stereo partly drawn) [Compound 13, 15-(3-Propylcyclopentyl)-16,17,18,19,20-pentanor-6,9α-nitrilo-PGI1 methyl ester]",inhibition in vivo at 1 mg/kg,[1]; [3],46%
same,inhibition in vivo at 1 mg/kg,[1]; [4],32.5%
"CCCC1CCC([C@H](O)/C=C/[C@@H]2[C@H]3CC(CCCCC(=O)OC)O[C@H]3C[C@H]2O)C1 (stereo partly shown) [Compound 16, 15-(3-Propylcyclopentyl)-16,17,18,19,20-pentanor-PGI1 methyl ester]",inhibition in vivo at 1.5 mg/kg,[1]; [3],51%
same,inhibition in vivo at 1.5 mg/kg,[1]; [4],53%
"CCC1CC([C@H](O)/C=C/[C@H]2[C@H](O)CC(=O)[C@@H]2CC(=O)CCCCC(=O)OC)C1 (stereo partly shown) [Compound 1, 15-(3-Ethylcyclobutyl)-16,17,18,19 20-pentanor-6-oxo-PGE1 methyl ester]",inhibition in vivo at 0.05 mg/kg,[1]; [7],21%
same,inhibition in vivo at 0.05 mg/kg,[1]; [8],0%
"CCCCC1CCC([C@H](O)/C=C/[C@H]2[C@H](O)CC(=O)[C@@H]2CC(=O)CCCCC(=O)OC)C1 (stereo partly shown) [Compound 7, 15-(3-Butylcyclopentyl)-16,17,18,19,20-pentanor-6-oxo-PGE1 methyl ester]",inhibition in vivo at 0.1 mg/kg,[1]; [5],62.7%
same,inhibition in vivo at 0.1 mg/kg,[1]; [6],55.1%
"CCCC1CCC([C@H](O)/C=C/[C@@H]2[C@H]3CC(CCCCC(=O)OC)=N[C@H]3C[C@H]2O)C1 (single isomer, unassigned) [Compound 14, 15-(3-Propylcyclopentyl)-16,17,18,19,20-pentanor-6,9α-nitrilo-PGI1 methyl ester]",inhibition in vivo at 0.5 mg/kg,[1]; [3],39.8%
same,inhibition in vivo at 0.5 mg/kg,[1]; [4],20.8%
same,inhibition in vivo at 0.5 mg/kg,[1]; [7],68.6%
same,inhibition in vivo at 0.5 mg/kg,[1]; [8],64.2%
same,LD50 at 336 h,Acute toxicity test,40 to 100 mg/kg
"CCCC1CC([C@H](O)/C=C/[C@H]2[C@H](O)CC(=O)[C@@H]2CC(=O)CCCCC(=O)OC)C1 (stereo partly shown) [Compound 2, 15-(3-Propylcyclobutyl)-16,17,18,19,20-pentanor-6-oxo-PGE1 methyl ester]",inhibition in vivo at 0.05 mg/kg,[1]; [7],52.4%
same,inhibition in vivo at 0.05 mg/kg,[1]; [8],17.3%
"COC(=O)CCCCC(=O)C[C@H]1C(=O)C[C@@H](O)[C@@H]1/C=C/[C@@H](O)C1CCC(C)CC1 (stereo partly shown) [Compound 9, 15-(4-Methylcyclohexyl)-16,17,18,19,20-pentanor-6-oxo-PGE1 methyl ester]",inhibition in vivo at 0.1 mg/kg,[1]; [5],21%
same,inhibition in vivo at 0.1 mg/kg,[1]; [6],0%
same,inhibition in vivo at 0.05 mg/kg,[1]; [7],13.1%
same,inhibition in vivo at 0.05 mg/kg,[1]; [8],8.8%
"CCC1CCC([C@H](O)/C=C/[C@H]2[C@H](O)CC(=O)[C@@H]2CC(=O)CCCCC(=O)OC)CC1 (stereo partly shown) [Compound 10, 15-(4-Ethylcyclohexyl)-16,17,18,19,20-pentanor-6-oxo-PGE1 methyl ester]",inhibition in vivo at 0.05 mg/kg,[1]; [7],35.6%
same,inhibition in vivo at 0.05 mg/kg,[1]; [8],12.2%
"CCCCC1CCC([C@H](O)/C=C/[C@H]2[C@H](O)CC(=O)[C@@H]2CC(=O)CCCCC(=O)OC)C1 (single isomer, unassigned) [Compound 8, 15-(3-Butylcyclopentyl)-16,17,18,19,20-pentanor-6-oxo-PGE1 methyl ester]",inhibition in vivo at 0.1 mg/kg,[1]; [5],77.7%
same,inhibition in vivo at 0.1 mg/kg,[1]; [6],73.7%
same,inhibition in vivo at 0.02 mg/kg,[1]; [7],44.4%
same,inhibition in vivo at 0.02 mg/kg,[1]; [8],39.3%
same,LD50 at 336 h,Acute toxicity test,10 to 20 mg/kg
"COC(=O)CCCCC(=O)C[C@H]1C(=O)C[C@@H](O)[C@@H]1/C=C/[C@@H](O)C1CCCC1 [Compound 3, 15-Cyclopentyl-16,17,18,19,20-pentanor-6-oxo-PGE1 methyl ester]",inhibition in vivo at 0.1 mg/kg,[1]; [5],19%
same,inhibition in vivo at 0.1 mg/kg,[1]; [6],30.5%
same,LD50 at 336 h,Acute toxicity test,10 to 20 mg/kg
CCCCC[C@H](O)/C=C/[C@H]1O[C@H]2C[C@H](O2)[C@@H]1C/C=C\CCCC(=O)O [thromboxane A2],activity on the artery,artery,contracting activity
same,effect on blood platelet aggregation,[2],aggregating activity
"CCCC1CCC([C@H](O)/C=C/[C@H]2[C@H](O)CC(=O)[C@@H]2CC(=O)CCCCC(=O)O)C1 (stereo partly shown) [Compound 5, 15-(3-Propylcyclopentyl)-16,17,18,19,20-pentanor-6-oxo-PGE1]",inhibition in vivo at 0.1 mg/kg,[1]; [5],32.6%
same,inhibition in vivo at 0.1 mg/kg,[1]; [6],44.5%
"CCCC1CCC([C@H](O)/C=C/[C@H]2[C@H](O)CC(=O)[C@@H]2CC(=O)CCCCC(=O)OC)C1 (single isomer, unassigned) [Compound 12, 15-(3-Propylcyclopentyl)-16,17,18,19,20-pentanor-6-oxo-PGE1 methyl ester]",inhibition rate GOT,"[1]; p.o., 100 μg/kg, plasma GOT after 24 hr",25.4%
same,inhibition rate GPT,"[1]; p.o., 100 μg/kg, plasma GPT after 24 hr",22.2%
"CCCCC1CCC([C@H](O)/C=C/[C@@H]2[C@H]3CC(CCCCC(=O)OC)=N[C@H]3C[C@H]2O)C1 (stereo partly drawn) [Compound 15, 15-(3-Butylcyclopentyl)-16,17,18,19,20-pentanor-6,9α-nitrilo-PGI1 methyl ester]",inhibition in vivo at 1 mg/kg,[1]; [3],45.5%
same,inhibition in vivo at 1 mg/kg,[1]; [4],15.6%
